The record followed here is patent US10556879B2, “Retinoid compound, preparation method therefor, intermediates thereof and application thereof” (SHANGHAI INSTITUTE OF ORGANIC CHEMISTRY, CHINESE ACADEMY OF …, priority 2016, dated 2020).

SMILES strings stand for the structures.

For one data set, the system named is subcutaneous implantation tumor of B16-F1 melanoma. Nature of the data set: Subcutaneous implantation model of B16-F1 melanoma in immunocompetent mice. The class given is in vivo, mice (C57BL/6). The conditions noted are these: mouse, in vivo. The protocol:
A subcutaneous implantation model of B16-F1 melanoma in immunocompetent mice (C57BL/6, female, 6-8 weeks) was established to study the inhibitory activity of compound WYC-103 on the tumor in situ. Firstly, B16-F1 cells were incubated within 3D fibrin gel (90-Pa in gel stiffness) that was immersed in culture medium for 5 days, and the desired tumor-repopulating cells were screened. Subsequently, the culture medium was respectively treated with collagenase and neutral protease II, and the tumor-repopulating cells of B16-F1 melanoma were released, then the obtained repopulating cells were transferred to a freshly prepared medium to be re-suspended and maintained at single-cell state.
Six immunocompetent mice were randomly divided into two groups which were respectively the treatment group and the DMSO negative control group. Mice were subcutaneously injected with 30,000 tumor-repopulating cells of melanoma to establish a subcutaneous implantation model of melanoma. Subsequently, Mice were administered via tail vein injection based on the body weight and the blood volume of the mice. From day 0, mice in the treatment group were administrated with WYC-103 once every 2 days at a blood concentration of 10 μM and fed normally, observing the survival of the mice. […] According to the statistical analysis, the tumor volume in the treatment group was only 50% of the control group (FIG. 12).
This experiment was repeated in order to further confirm the inhibitory activity of WYC-103 on subcutaneous implantation tumor of B16-F1 melanoma. In the present experiment, 18 immunocompetent mice (C57BL/6, female, 6-8 weeks) were randomly divided into three groups which were respectively the treatment group, the positive control group (BMS-453 was used as the positive drug) and the DMSO negative control group. Subsequently, Mice were administered via tail vein injection based on the body weight and the blood volume of the mice. From day 0, mice in the treatment group were administrated with WYC-103 once every 2 days at a blood concentration of 10 μM; mice in the positive control group were administered with BMS-453 (WYC-114) as the positive drug in the same route of administration; mice in the negative control group was administered with 0.1% DMSO in a same route of administration.
Take `CC1(C)CC=C(c2ccccc2)c2cc(/C=C/c3ccc(C(=O)O)cc3)ccc21` [BMS-453, reference compound]: the “body weight of the mice” value is listed as “significantly reduced”, the “dissection of peritoneal/abdominal cavity” value was “a large number of abnormal foamy structure appeared in the peritoneal cavity” and the toxic side effects result is listed as “a greater toxic side effect”.

The same data set, now with this note: repeated experiment, on the 20th day.
`CC1(C)CC=C(c2ccccc2)c2cc(/C=C/c3ccc(C(=O)O)cc3)ccc21` [BMS-453, reference compound]: the mice died result is given as “all the mice in the positive control group died”.

The next data set has as its system tumor-repopulating cells of B16-F1 melanoma. Nature of the data set: Inhibitory activity on proliferation of tumor-repopulating cells (TRCs) of B16-F1 melanoma in 3D fibrin gel. Format: cell-based. To be noted: Mus musculus, B16-F1, 120 h; 10 μM, incubated 5 days, colony tumor size; read-out: Inhibition rate on TRCs of B16-F1 melanoma at a concentration of 10 μM (%). The protocol:
B16-F1 Melanoma cells were incubated with 3D fibrin gel medium (90-Pa) for 5 days, and the desired tumor-repopulating cells of melanoma were screened (Nat. Mater. 2012, 11, 734). Subsequently, the culture medium was respectively treated with collagenase and neutral protease II, and the tumor-repopulating cells of B16-F1 melanoma were released, then the obtained repopulating cells were transferred to a freshly prepared medium to be resuspended and maintained at single-cell state. The tumor-repopulating cells of B16-F1 melanoma were inoculated in 3D fibrin gel medium (90-Pa) for 5 days, with 0.1% DMSO as the negative control group, Tazarotene and Bexarotene as the positive control drugs respectively, […] for 5 days. The colony tumor size was measured and calculated, and the inhibition rate of each drug on the tumor-repopulating cells of B16-F1 melanoma was calculated. The results of inhibitory activity of the compound of the present invention on the proliferation of tumor-repopulating cells of B16-F1 melanoma were shown in Table 2 below.
As for `CCOC(=O)c1ccc(C#Cc2ccc3c(c2)C(C)(C)CC[S+]3[O-])c(F)c1` (centres unmarked) [WYC-312, ethyl 3-fluoro-4-((4,4-dimethyl-1-oxothiochroman-6-yl)ethynyl)benzoate], the inhibition at 10 µM amounted to 71%.
Turning to `CCOC(=O)c1ccc(C#Cc2ccc3c(c2)C(C)(C)CCS3)c(F)c1F` [WYC-313, ethyl 2,3-difluoro-4((4,4-dimethylthiochroman-6-yl)ethynyl)benzoate], the inhibition at 10 µM was determined as 62.2%.
Take `CC1(C)CCSc2ccc(C#Cc3ccc(C(=O)O)c(F)c3F)cc21` [WYC-314, 2,3-difluoro-4((4,4-dimethylthiochroman-6-yl)ethynyl)benzoic Acid]: the inhibition at 10 µM came out at 70.1%.
Same read-out and setting: the value for `CCOC(=O)c1ccc(C#Cc2ccc3c(c2)C(C)(C)CC[S+]3[O-])c(F)c1F` (centres unmarked) [WYC-315, ethyl 2,3-difluoro-4-((4,4-dimethyl-1-oxothiochroman-6-yl)ethynyl)benzoate] was 70.1%; that for `COC(=O)c1ccc(C#Cc2ccc3c(c2)C(C)(C)CCS3)c(NC(C)=O)c1` [WYC-316, methyl 3-acetamido-4-((4,4-dimethylthiochroman-6-yl)ethynyl)benzoate] was 76.2%.
`CCOC(=O)c1ccc(C#Cc2ccc3c(c2)C(C)(C)CCS3)c(NC(C)=O)c1` [WYC-317, ethyl 3-acetamido-4-((4,4-dimethylthiochroman-6-yl)ethynyl)benzoate]: the inhibition at 10 µM turned out to be 86.4%.
Same read-out and setting: then `CCOC(=O)c1ccc(C#Cc2ccc3c(c2)C(C)(C)CC[S+]3[O-])c(NC(C)=O)c1` (centres unmarked) [WYC-318, ethyl 3-acetamido-4-((4,4-dimethyl-1-oxothiochroman-6-yl)ethynyl)benzoate], with 60%; and `CC(=O)Nc1cc(C(=O)O)ccc1C#Cc1ccc2c(c1)C(C)(C)CCS2` [WYC-319, 3-acetamido-4-((4,4-dimethylthiochroman-6-yl)ethynyl)benzoic Acid], with 65.8%; and `CCOC(=O)c1cnc(C#Cc2ccc3c(c2)C(C)(C)CCS3(=O)=O)nc1` [WYC-320, ethyl 2-((4,4-dimethyl-1,1-dioxothiochroman-6-yl)ethynyl)pyrimidin-5-carboxylate], with 92.6%.
For `COC(=O)c1ccc(C#Cc2ccc3c(c2)C(C)(C)CC[S+]3[O-])c(NC(C)=O)c1` (centres unmarked) [WYC-321, methyl 3-acetamido-4-((4,4-dimethyl-1-oxothiochroman-6-yl)ethynyl)benzoate], the inhibition at 10 µM stood at 78.2%.
In the case of `CCOC(=O)c1cnc(C#Cc2ccc3c(c2)C(C)(C)CCS3)cn1` [WYC-322, ethyl 5-((4,4-dimethylthiochroman-6-yl)ethynyl)pyrazin-2-carboxylate], the inhibition at 10 µM was 78.8%.
The same measure, in the same setting: then `CC1(C)CCSc2ccc(C#Cc3cnc(C(=O)O)cn3)cc21` [WYC-323, 5-((4,4-dimethylthiochroman-6-yl)ethynyl)pyrazin-2-carboxylic Acid], with 76%; and `CCOC(=O)c1cnc(C#Cc2ccc3c(c2)C(C)(C)CC[S+]3[O-])cn1` (centres unmarked) [WYC-324, ethyl 5-((4,4-dimethyl-1-oxothiochroman-6-yl)ethynyl)pyrazin-2-carboxylate], with 85.1%.
Still for that read-out and setting: the value for `CCOC(=O)c1ccc(C#Cc2ccc3c(c2)C(C)(C)CCS3)cc1Cl` [WYC-325, ethyl 2-chloro-4-((4,4-dimethylthiochroman-6-yl)ethynyl)benzoate] was 74.2%.
Take `CCOC(=O)c1ccc(C#Cc2ccc3c(c2)C(C)(C)CC[S+]3[O-])cc1Cl` (centres unmarked) [WYC-326, ethyl 2-chloro-4-((4,4-dimethyl-1-oxothiochroman-6-yl)ethynyl)benzoate]: the inhibition at 10 µM stood at 73.4%.
On the same count and under the same terms, then `CC1(C)CCSc2ccc(C#Cc3ccc(C(=O)O)c(Cl)c3)cc21` [WYC-327, 2-chloro-4-((4,4-dimethylthiochroman-6-yl)ethynyl)benzoic Acid], with 75.7%.
As to `CC1(C)CCC(C)(C)c2cc(C#Cc3cnc(C#N)nc3)ccc21` [WYC-329, 2-cyano-5-((5,5,8,8-tetramethyl-5,6,7,8-tetrahydronaphth-2-yl)ethynyl)pyrimidine], the inhibition at 10 µM is 94.5%.
Turning to `CC1(C)CCC(C)(C)c2cc(C#Cc3ccc(C(=O)O)c(N)c3)ccc21` [WYC-330, 2-amino-4-((5,5,8,8-tetramethyl-5,6,7,8-tetrahydronaphth-2-yl)ethynyl)benzoic Acid], the inhibition at 10 µM amounted to 79%.
On to `COC(=O)c1ccc(C#Cc2ccc3c(c2)C(C)(C)CCC3(C)C)c(O)c1` [WYC-332, methyl 3-hydroxy-4-((5,5,8,8-tetramethyl-5,6,7,8-tetrahydronaphth-2-yl)ethynyl)benzoate], for which the inhibition at 10 µM was 55.9%.
On to `CC1(C)CCC(C)(C)c2cc(C#Cc3ccc(C#N)cn3)ccc21` [WYC-333, 2-((5,5,8,8-tetramethyl-5,6,7,8-tetrahydronaphth-2-yl)ethynyl)-5-cyanopyridine], for which the inhibition at 10 µM turned out to be 69.1%.
The same measure, in the same setting: the value for `CCOC(=O)c1ncc(C#Cc2ccc3c(c2)C(C)(C)CCC3(C)C)cn1` [WYC-334, ethyl 5-((5,5,8,8-tetramethyl-5,6,7,8-tetrahydronaphth-2-yl)ethynyl)pyrimidin-2-carboxylate] was 80.6%; that for `CC1(C)CCC(C)(C)c2cc(C#Cc3ccc(C(=O)O)c(O)c3)ccc21` [WYC-335, 2-hydroxy-4-((5,5,8,8-tetramethyl-5,6,7,8-tetrahydronaphth-2-yl)ethynyl)benzoic Acid] was 86.9%.
On to `CC(=O)Nc1cc(C#Cc2ccc3c(c2)C(C)(C)CCC3(C)C)ccc1C(=O)O` [WYC-336, 2-acetyl amino-4-((5,5,8,8-tetramethyl-5,6,7,8-tetrahydronaphth-2-yl)ethynyl)benzoic Acid], for which the inhibition at 10 µM was determined as 86.7%.
The same measure, in the same setting: then `CC1(C)CCC(C)(C)c2cc(C#Cc3ccc(C(=O)O)nc3)ccc21` [WYC-337, 5-((5,5,8,8-tetramethyl-5,6,7,8-tetrahydronaphth-2-yl)ethynyl)pyridin-2-carboxylic Acid], with 87.5%; and `COC(=O)c1ncc(C#Cc2ccc3c(c2)C(C)(C)CCC3(C)C)cn1` [WYC-338, methyl 5-((5,5,8,8-tetramethyl-5,6,7,8-tetrahydronaphth-2-yl)ethynyl)pyrimidin-2-carboxylate], with 69%; and `CCOC(=O)c1ccc(C#Cc2ccc3c(c2)C(C)(C)CCC3(C)C)cn1` [WYC-341, ethyl 5-((5,5,8,8-tetramethyl-5,6,7,8-tetrahydronaphth-2-yl)ethynyl)pyridin-2-carboxylate], with 87%.
`CCOC(=O)c1cnc(C#Cc2ccc3c(c2)C(C)(C)CCC3(C)C)cn1` [WYC-342, ethyl 5-((5,5,8,8-tetramethyl-5,6,7,8-tetrahydronaphth-2-yl)ethynyl)pyrazin-2-carboxylate]: the inhibition at 10 µM stood at 77.6%.

The data set is the same for the next values; noted with them: Mus musculus, B16-F1, dose-response curve, colony tumor volume; read-out: IC50 of inhibition on TRCs of B16-F1 melanoma/μM.
Consider `CCOC(=O)c1cnc(C#Cc2ccc3c(c2)C(C)(C)CCS3(=O)=O)nc1` [WYC-320, ethyl 2-((4,4-dimethyl-1,1-dioxothiochroman-6-yl)ethynyl)pyrimidin-5-carboxylate], for which the IC50 is 1.65 µM.
Turning to `CC1(C)CCC(C)(C)c2cc(C#Cc3cnc(C#N)nc3)ccc21` [WYC-329, 2-cyano-5-((5,5,8,8-tetramethyl-5,6,7,8-tetrahydronaphth-2-yl)ethynyl)pyrimidine], the IC50 worked out at 0.5 µM.

The same data set, now with this note: Mus musculus, B16-F1; 10 μM (Table 3); read-out: Inhibition rate on TRCs of B16-F1 melanoma at a concentration of 10 μM/%.
As to `CCOC(=O)c1cnc(C#Cc2ccc3c(c2)C(C)(C)CCS3(=O)=O)nc1` [WYC-320, ethyl 2-((4,4-dimethyl-1,1-dioxothiochroman-6-yl)ethynyl)pyrimidin-5-carboxylate], the inhibition at 10 µM is 92.6%.
`CC1(C)CCC(C)(C)c2cc(C#Cc3cnc(C#N)nc3)ccc21` [WYC-329, 2-cyano-5-((5,5,8,8-tetramethyl-5,6,7,8-tetrahydronaphth-2-yl)ethynyl)pyrimidine]: the inhibition at 10 µM came out at 94.5%.
